Measurements as given in US7718641B2, “Pyrrolo [3,4-H] isoquinoline compounds and methods for modulating gated ion channels” (Aros Pharma ApS, priority 2005, dated 2010).

Molecular target: T1, heteromeric hASIC1a+3 (Homo sapiens, UniProt P78348+Q9UHC3)
T1 sequence (P78348 1-528): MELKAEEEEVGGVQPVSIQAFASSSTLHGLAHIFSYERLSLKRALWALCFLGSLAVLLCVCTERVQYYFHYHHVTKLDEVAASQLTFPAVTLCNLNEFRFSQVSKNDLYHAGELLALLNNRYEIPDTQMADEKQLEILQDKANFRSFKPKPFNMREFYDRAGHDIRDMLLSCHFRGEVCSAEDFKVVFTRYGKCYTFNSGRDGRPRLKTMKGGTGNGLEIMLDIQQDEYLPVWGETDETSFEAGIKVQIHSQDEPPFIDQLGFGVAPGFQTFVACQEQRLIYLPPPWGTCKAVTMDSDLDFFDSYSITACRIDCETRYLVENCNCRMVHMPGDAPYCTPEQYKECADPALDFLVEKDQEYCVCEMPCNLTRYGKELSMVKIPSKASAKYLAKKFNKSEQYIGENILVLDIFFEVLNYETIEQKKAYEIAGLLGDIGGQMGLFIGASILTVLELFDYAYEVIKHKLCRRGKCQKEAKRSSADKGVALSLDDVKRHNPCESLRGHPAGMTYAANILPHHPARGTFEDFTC
T1 sequence (Q9UHC3 1-531): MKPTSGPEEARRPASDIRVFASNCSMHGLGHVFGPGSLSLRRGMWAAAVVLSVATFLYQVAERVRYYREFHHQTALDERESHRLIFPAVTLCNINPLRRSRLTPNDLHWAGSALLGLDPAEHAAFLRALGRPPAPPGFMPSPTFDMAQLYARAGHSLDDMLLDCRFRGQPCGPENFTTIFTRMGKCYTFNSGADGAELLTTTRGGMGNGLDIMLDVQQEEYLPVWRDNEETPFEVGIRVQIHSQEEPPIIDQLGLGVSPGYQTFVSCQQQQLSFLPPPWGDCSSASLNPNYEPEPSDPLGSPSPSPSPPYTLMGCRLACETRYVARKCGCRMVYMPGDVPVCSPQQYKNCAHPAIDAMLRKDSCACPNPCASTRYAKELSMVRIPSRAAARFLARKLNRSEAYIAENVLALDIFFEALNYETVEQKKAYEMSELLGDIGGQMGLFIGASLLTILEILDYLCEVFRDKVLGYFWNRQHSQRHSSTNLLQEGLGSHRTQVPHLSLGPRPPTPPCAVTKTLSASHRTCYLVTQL
Experiment: Two-electrode voltage clamp in Xenopus laevis oocytes expressing heteromeric hASIC1a+3
Format: cell-based
Parameters: expressed in transfected cells
Conditions: 30 μM, OpusExpress
Experimental: Two-electrode voltage clamp electrophysiological assays in Xenopus laevis oocytes expressing gated ion channels are performed as follows:
Oocytes are surgically removed from adult Xenopus laevis and treated for 2 h at room temperature with 1 mg/ml type I collagenase (Sigma) in Barth's solution under mild agitation. Selected oocytes at stage IV-V are defolliculated manually before nuclear microinjection of 2.5-5 ng of a suitable expression vector, such as pcDNA3, comprising the nucleotide sequence encoding a gated ion channel subunit protein. In such an experiment, the oocytes express homomultimeric proton-gated ion channels on their surface. In an alternate experiment, one, two, three or more vectors comprising the coding sequences for distinct gated ion channel subunits are co-injected in the oocyte nuclei. […] After 2-4 days of expression at 19° C. in Barth's solution containing […] gentamicin and 1.8 mM CaCl2, gated ion channels are activated by applying an acidic solution (pH <7) and currents are recorded in a two electrode voltage-clamp configuration, using an OC-725B amplifier (Warner Instruments). Currents are acquired and digitized at 500 Hz on an Apple Imac G3 computer with an A/D NB-MIO-16XL interface (National Instruments) and recorded traces are post-filtered at 100 Hz in Axograph (Axon Instruments) (Neher, E. and Sakmann, B. (1976) Nature 260:799-802). […]

COc1ccc(F)cc1-c1cc2c(c3c1CCN(C)C3)NC(=O)/C2=N/O [Compound A, 5-(5-fluoro-2-methoxyphenyl)-6,7,8,9-tetrahydro-3-(hydroxyimino)-8-methyl-1H-pyrrolo[3,2-h]isoquinoline-2(3H)-one]
effect on inward currents elicited by pH 6.5, heteromeric hASIC1a+3: effectively modulates the activity
